Data: ChEMBL document CHEMBL1201861, “Genomics of Drug Sensitity in Cancer screening data, Wellcome Trust Sanger Institute”

How the values were obtained:
NCI-H1563 = assay: cells; assay type: functional, cell-based; settings: Homo sapiens;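 note: growth inhibition of human NCI-H1563 cells, read out with a cell viability assay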
Description: SANGER: Inhibition of human NCI-H1563 cell growth in a cell viability assay.

KYSE-450 = assay: cells; assay type: functional, cell-based; settings: Homo sapiens;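 note: cell growth inhibition measured by a viability assay in human KYSE-450 cells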
Description: SANGER: Inhibition of human KYSE-450 cell growth in a cell viability assay.

SW756 = assay: cells; assay type: functional, cell-based; settings: Homo sapiens;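 note: growth inhibition of human SW756 cells, read out with a cell viability assay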
Description: SANGER: Inhibition of human SW756 cell growth in a cell viability assay.

SKG-IIIa = assay: cells; assay type: functional, cell-based; settings: Homo sapiens;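 note: cell growth inhibition, read out with a cell viability assay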
Description: SANGER: Inhibition of human SKG-IIIa cell growth in a cell viability assay.

PANC-03-27 = assay: cells; assay type: functional, cell-based; settings: Homo sapiens
Description: SANGER: Inhibition of human PANC-03-27 cell growth in a cell viability assay.

SiHa = assay: cells; assay type: functional, cell-based; settings: Homo sapiens;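 note: Viability-based readout of growth inhibition in SiHa cells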
Description: SANGER: Inhibition of human SiHa cell growth in a cell viability assay.

DBTRG-05MG = assay: cells; assay type: functional, cell-based; settings: Homo sapiens;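 note: cell viability assay measuring growth inhibition of human DBTRG-05MG cells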
Description: SANGER: Inhibition of human DBTRG-05MG cell growth in a cell viability assay.

NCI-H650 = assay: cells; assay type: functional, cell-based; settings: Homo sapiens;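 note: growth inhibition of NCI-H650 cells, read out by a viability assay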
Description: SANGER: Inhibition of human NCI-H650 cell growth in a cell viability assay.

CAL-12T = assay: cells; assay type: functional, cell-based; settings: Homo sapiens;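 note: growth inhibition of human CAL-12T cells, read out with a cell viability assay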
Description: SANGER: Inhibition of human CAL-12T cell growth in a cell viability assay.

GMS-10 = assay: cells; assay type: functional, cell-based; settings: Homo sapiens;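 note: growth inhibition of GMS-10 cells, read out as cell viability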
Description: SANGER: Inhibition of human GMS-10 cell growth in a cell viability assay.

ESS-1 = assay: cells; assay type: functional, cell-based; settings: Homo sapiens;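 note: growth inhibition of human ESS-1 cells, read out by a cell viability assay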
Description: SANGER: Inhibition of human ESS-1 cell growth in a cell viability assay.

COLO-679 = assay: cells; assay type: functional, cell-based; settings: Homo sapiens
Description: SANGER: Inhibition of human COLO-679 cell growth in a cell viability assay.

MDA-MB-175-VII = assay: cells; assay type: functional, cell-based; settings: Homo sapiens
8505C = assay: cells; assay type: functional, cell-based; settings: Homo sapiens
Description: SANGER: Inhibition of human 8505C cell growth in a cell viability assay.

AN3-CA = assay: cells; assay type: functional, cell-based; settings: Homo sapiens;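 note: growth inhibition of human AN3-CA cells measured by a cell viability assay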
Description: SANGER: Inhibition of human AN3-CA cell growth in a cell viability assay.

YAPC = assay: cells; assay type: functional, cell-based; settings: Homo sapiens;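 note: growth inhibition of YAPC cells, measured with a cell viability assay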
Description: SANGER: Inhibition of human YAPC cell growth in a cell viability assay.

CP50-MEL-B = assay: cells; assay type: functional, cell-based; settings: Homo sapiens;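 note: growth inhibition of the human cell line, measured with a cell viability read-out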
Description: SANGER: Inhibition of human CP50-MEL-B cell growth in a cell viability assay.

HT-1080 = assay: cells; assay type: functional, cell-based; settings: Homo sapiens
Description: SANGER: Inhibition of human HT-1080 cell growth in a cell viability assay.

KYSE-410 = assay: cells; assay type: functional, cell-based; settings: Homo sapiens;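 note: growth inhibition of KYSE-410 cells, measured through a cell viability readout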
Description: SANGER: Inhibition of human KYSE-410 cell growth in a cell viability assay.

SAS = assay: cells; assay type: functional, cell-based; settings: Homo sapiens;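 note: growth inhibition of SAS cells, read out with a cell viability assay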
Description: SANGER: Inhibition of human SAS cell growth in a cell viability assay.

Hs-578T = assay: cells; assay type: functional, cell-based; settings: Homo sapiens
Description: SANGER: Inhibition of human Hs-578-T cell growth in a cell viability assay.

COLO-680N = assay: cells; assay type: functional, cell-based; settings: Homo sapiens;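 note: cell viability assay used to measure inhibition of COLO-680N cell growth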
Description: SANGER: Inhibition of human COLO-680N cell growth in a cell viability assay.

SN12C = assay: cells; assay type: functional, cell-based; settings: Homo sapiens;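 note: growth inhibition of human SN12C cells, measured by a cell viability assay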
Description: SANGER: Inhibition of human SN12C cell growth in a cell viability assay.

KYSE-180 = assay: cells; assay type: functional, cell-based; settings: Homo sapiens;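 note: growth inhibition of KYSE-180 cells, read out with a cell viability assay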
Description: SANGER: Inhibition of human KYSE-180 cell growth in a cell viability assay.

AGS = assay: cells; assay type: functional, cell-based; settings: Homo sapiens;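 note: growth inhibition of AGS cells, determined with a cell viability assay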
Description: SANGER: Inhibition of human AGS cell growth in a cell viability assay.

SJRH30 = assay: cells; assay type: functional, cell-based; settings: Homo sapiens;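 note: growth inhibition of human SJRH30 cells, read out with a cell viability assay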
Description: SANGER: Inhibition of human SJRH30 cell growth in a cell viability assay.

COR-L105 = assay: cells; assay type: functional, cell-based; settings: Homo sapiens
Description: SANGER: Inhibition of human COR-L105 cell growth in a cell viability assay.

KOSC-2 = assay: cells; assay type: functional, cell-based; settings: Homo sapiens;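 note: growth inhibition of KOSC-2 cells, read out by a cell viability assay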
Description: SANGER: Inhibition of human KOSC-2 cell growth in a cell viability assay.

OE19 = assay: cells; assay type: functional, cell-based; settings: Homo sapiens;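 note: growth inhibition of OE19 cells, measured through a cell viability read-out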
Description: SANGER: Inhibition of human OE19 cell growth in a cell viability assay.

COLO-792 = assay: cells; assay type: functional, cell-based; settings: Homo sapiens
Description: SANGER: Inhibition of human COLO-792 cell growth in a cell viability assay.

U-118-MG = assay: cells; assay type: functional, cell-based; settings: Homo sapiens
Description: SANGER: Inhibition of human U-118-MG cell growth in a cell viability assay.

SK-LU-1 = assay: cells; assay type: functional, cell-based; settings: Homo sapiens;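 note: cell viability assay measuring growth inhibition of human SK-LU-1 cells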
Description: SANGER: Inhibition of human SK-LU-1 cell growth in a cell viability assay.

MDA-MB-415 = assay: cells; assay type: functional, cell-based; settings: Homo sapiens
NUGC-3 = assay: cells; assay type: functional, cell-based; settings: Homo sapiens;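 note: growth inhibition of human NUGC-3 cells, read out with a cell viability assay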
Description: SANGER: Inhibition of human NUGC-3 cell growth in a cell viability assay.

RPMI-7951 = assay: cells; assay type: functional, cell-based; settings: Homo sapiens
Description: SANGER: Inhibition of human RPMI-7951 cell growth in a cell viability assay.

MDA-MB-361 = assay: cells; assay type: functional, cell-based; settings: Homo sapiens
HCC1419 = assay: cells; assay type: functional, cell-based; settings: Homo sapiens;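 note: growth inhibition of human HCC1419 cells, read out as cell viability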
Description: SANGER: Inhibition of human HCC1419 cell growth in a cell viability assay.

COLO-678 = assay: cells; assay type: functional, cell-based; settings: Homo sapiens
Description: SANGER: Inhibition of human COLO-678 cell growth in a cell viability assay.

HuO9 = assay: cells; assay type: functional, cell-based; settings: Homo sapiens;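 note: growth inhibition of HuO9 cells, read out with a cell viability assay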
Description: SANGER: Inhibition of human HuO9 cell growth in a cell viability assay.

BT-20 = assay: cells; assay type: functional, cell-based; settings: Homo sapiens;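 note: cell viability assay measuring suppression of growth in human BT-20 cells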
Description: SANGER: Inhibition of human BT-20 cell growth in a cell viability assay.

BL-70 = assay: SANGER: Inhibition of human BL-70 cell growth in a cell viability assay.; assay type: functional, cell-based; settings: Homo sapiens, BL-70
MC-CAR = assay: cells; assay type: functional, cell-based, Homo sapiens; settings: Homo sapiens, MC-CAR;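 note: growth inhibition of the human MC-CAR cell line, read out by a cell viability assay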
Description: SANGER: Inhibition of human MC-CAR cell growth in a cell viability assay.

KMS-12-PE = assay: cells; assay type: functional, cell-based, Homo sapiens; settings: Homo sapiens, KMS-12-PE;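 note: growth inhibition of human KMS-12-PE cells, measured with a cell viability assay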
Description: SANGER: Inhibition of human KMS-12-PE cell growth in a cell viability assay.

NCI-H1522 = assay: cells; assay type: functional, cell-based, Homo sapiens; settings: Homo sapiens, NCI-H1522;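 note: growth inhibition of NCI-H1522 cells, read out with a cell viability assay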
Description: SANGER: Inhibition of human NCI-H1522 cell growth in a cell viability assay.

ST486 = assay: SANGER: Inhibition of human ST486 cell growth in a cell viability assay.; assay type: functional, cell-based; settings: Homo sapiens, ST486
TE-15 = assay: cells; assay type: functional, cell-based, Homo sapiens; settings: Homo sapiens, TE-15;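 note: cell viability readout of growth inhibition in TE-15 cells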
Description: SANGER: Inhibition of human TE-15 cell growth in a cell viability assay.

OPM-2 = assay: cells; assay type: functional, cell-based, Homo sapiens; settings: Homo sapiens, OPM-2;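 note: growth of OPM-2 cells measured with a viability assay, IC50 for suppression of proliferation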
Description: SANGER: Inhibition of human OPM-2 cell growth in a cell viability assay.

TALL-1 = assay: cells; assay type: functional, cell-based, Homo sapiens; settings: Homo sapiens, TALL-1;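 note: growth inhibition of cultured human TALL-1 cells, read out by a cell viability assay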
Description: SANGER: Inhibition of human TALL-1 cell growth in a cell viability assay.

NCI-H345 = assay: cells; assay type: functional, cell-based, Homo sapiens; settings: Homo sapiens, NCI-H345;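 note: growth inhibition of NCI-H345 cells measured with a cell viability assay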
Description: SANGER: Inhibition of human NCI-H345 cell growth in a cell viability assay.

CP66-MEL = assay: cells; assay type: functional, cell-based; settings: Homo sapiens;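 note: growth inhibition of CP66-MEL cells determined in a cell viability assay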
Description: SANGER: Inhibition of human CP66-MEL cell growth in a cell viability assay.

SK-MM-2 = assay: cells; assay type: functional, cell-based, Homo sapiens; settings: Homo sapiens, SK-MM-2;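 note: growth inhibition of human SK-MM-2 cells, read out with a cell viability assay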
Description: SANGER: Inhibition of human SK-MM-2 cell growth in a cell viability assay.

NCI-H2171 = assay: cells; assay type: functional, cell-based, Homo sapiens; settings: Homo sapiens, NCI-H2171;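 note: growth inhibition of human NCI-H2171 cells, read out by a cell viability assay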
Description: SANGER: Inhibition of human NCI-H2171 cell growth in a cell viability assay.

TE-441-T = assay: cells; assay type: functional, cell-based, Homo sapiens; settings: Homo sapiens, TE-441-T
Description: SANGER: Inhibition of human TE-441-T cell growth in a cell viability assay.

EHEB = assay: cells; assay type: functional, cell-based; settings: Homo sapiens;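 note: growth inhibition of human EHEB cells, read out with a cell viability assay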
Description: SANGER: Inhibition of human EHEB cell growth in a cell viability assay.

RPMI 8402 = assay: SANGER: Inhibition of human RPMI-8402 cell growth in a cell viability assay.; assay type: functional, cell-based; settings: Homo sapiens, RPMI 8402
D-336MG = assay: cells; assay type: functional, cell-based, Homo sapiens; settings: Homo sapiens, D-336MG
Description: SANGER: Inhibition of human D-336MG cell growth in a cell viability assay.

NC1(c2ccc(-c3nc4ccn5c(=O)[nH]nc5c4cc3-c3ccccc3)cc2)CCC1 [MK-2206]
IC50 (NCI-H1563): 0.482 µM | IC50 (KYSE-450): > 4 µM | IC50 (SW756): > 4 µM | IC50 (SKG-IIIa): > 4 µM | IC50 (PANC-03-27): > 4 µM | IC50 (SiHa): > 4 µM | IC50 (DBTRG-05MG): > 4 µM | IC50 (NCI-H650): > 4 µM | IC50 (CAL-12T): > 4 µM | IC50 (GMS-10): > 4 µM | IC50 (ESS-1): > 4 µM | IC50 (COLO-679): > 4 µM | IC50 (MDA-MB-175-VII): 0.137 µM | IC50 (8505C): > 4 µM | IC50 (AN3-CA): 3.62 µM | IC50 (YAPC): > 4 µM | IC50 (CP50-MEL-B): > 4 µM | IC50 (HT-1080): > 4 µM | IC50 (KYSE-410): > 4 µM | IC50 (SAS): > 4 µM | IC50 (Hs-578T): 2.11 µM | IC50 (COLO-680N): > 4 µM | IC50 (SN12C): > 4 µM | IC50 (KYSE-180): > 4 µM | IC50 (AGS): 2.72 µM | IC50 (SJRH30): 3.69 µM | IC50 (COR-L105): 1.8 µM | IC50 (KOSC-2): > 4 µM | IC50 (OE19): > 4 µM | IC50 (COLO-792): > 4 µM | IC50 (U-118-MG): > 4 µM | IC50 (SK-LU-1): > 4 µM | IC50 (MDA-MB-415): 0.636 µM | IC50 (NUGC-3): > 4 µM | IC50 (RPMI-7951): > 4 µM | IC50 (MDA-MB-361): 0.578 µM | IC50 (HCC1419): 0.489 µM | IC50 (COLO-678): > 4 µM | IC50 (HuO9): 0.928 µM | IC50 (BT-20): > 4 µM

CN(C)CCOc1ccc(-c2nc(-c3ccncc3)c(-c3ccc4c(c3)CC/C4=N\O)[nH]2)cc1 [SB590885]
IC50 (NCI-H1563): > 5 µM | IC50 (KYSE-450): > 5 µM | IC50 (SW756): > 5 µM | IC50 (SKG-IIIa): > 5 µM | IC50 (PANC-03-27): > 5 µM | IC50 (SiHa): > 5 µM | IC50 (DBTRG-05MG): 3.53 µM | IC50 (NCI-H650): > 5 µM | IC50 (CAL-12T): > 5 µM | IC50 (GMS-10): > 5 µM | IC50 (ESS-1): > 5 µM | IC50 (COLO-679): 0.386 µM | IC50 (MDA-MB-175-VII): > 5 µM | IC50 (8505C): > 5 µM | IC50 (AN3-CA): > 5 µM | IC50 (YAPC): > 5 µM | IC50 (CP50-MEL-B): 1.73 µM | IC50 (HT-1080): > 5 µM | IC50 (KYSE-410): > 5 µM | IC50 (SAS): > 5 µM | IC50 (Hs-578T): > 5 µM | IC50 (COLO-680N): > 5 µM | IC50 (SN12C): > 5 µM | IC50 (KYSE-180): > 5 µM | IC50 (AGS): > 5 µM | IC50 (SJRH30): > 5 µM | IC50 (COR-L105): > 5 µM | IC50 (KOSC-2): > 5 µM | IC50 (OE19): > 5 µM | IC50 (COLO-792): > 5 µM | IC50 (U-118-MG): > 5 µM | IC50 (SK-LU-1): > 5 µM | IC50 (MDA-MB-415): > 5 µM | IC50 (NUGC-3): > 5 µM | IC50 (RPMI-7951): > 5 µM | IC50 (MDA-MB-361): > 5 µM | IC50 (HCC1419): > 5 µM | IC50 (COLO-678): > 5 µM | IC50 (HuO9): > 5 µM | IC50 (BT-20): > 5 µM

Cc1cc(N2CCOCC2)cc2[nH]c(-c3c(NC[C@@H](O)c4cccc(Cl)c4)cc[nH]c3=O)nc12
IC50 (BL-70): 4.8 µM | IC50 (MC-CAR): > 5.12 µM | IC50 (KMS-12-PE): > 5.12 µM | IC50 (NCI-H1522): > 5.12 µM | IC50 (ST486): > 5.12 µM | IC50 (TE-15): 0.813 µM | IC50 (OPM-2): 0.525 µM | IC50 (TALL-1): > 5.12 µM | IC50 (NCI-H345): > 5.12 µM | IC50 (CP66-MEL): > 5.12 µM | IC50 (SK-MM-2): 0.63 µM | IC50 (NCI-H2171): > 5.12 µM | IC50 (TE-441-T): > 5.12 µM | IC50 (EHEB): > 5.12 µM | IC50 (RPMI 8402): > 5.12 µM | IC50 (D-336MG): 0.872 µM

C=CC(=O)N1CCCC(Nc2nc(Nc3ccc(N(C)C(=O)CC)cc3)nc3[nH]cnc23)C1 (stereo not given)
IC50 (BL-70): > 10.2 µM | IC50 (MC-CAR): > 10.2 µM | IC50 (KMS-12-PE): > 10.2 µM | IC50 (NCI-H1522): > 10.2 µM | IC50 (ST486): > 10.2 µM | IC50 (TE-15): 1.85 µM | IC50 (OPM-2): > 10.2 µM | IC50 (TALL-1): > 10.2 µM | IC50 (NCI-H345): > 10.2 µM | IC50 (CP66-MEL): > 10.2 µM | IC50 (SK-MM-2): > 10.2 µM | IC50 (NCI-H2171): > 10.2 µM | IC50 (TE-441-T): > 10.2 µM | IC50 (EHEB): > 10.2 µM | IC50 (RPMI 8402): > 10.2 µM | IC50 (D-336MG): 8 µM

COc1cc(N2CCC(N3CCN(C)CC3)CC2)ccc1Nc1ncc(Cl)c(Nc2ccccc2S(=O)(=O)C(C)C)n1 [TAE-684]
IC50 (BL-70): 0.995 µM | IC50 (MC-CAR): > 2 µM | IC50 (KMS-12-PE): > 2 µM | IC50 (NCI-H1522): > 2 µM | IC50 (ST486): > 2 µM | IC50 (TE-15): 0.511 µM | IC50 (OPM-2): 0.227 µM | IC50 (TALL-1): > 2 µM | IC50 (NCI-H345): > 2 µM | IC50 (CP66-MEL): > 2 µM | IC50 (SK-MM-2): 0.416 µM | IC50 (NCI-H2171): > 2 µM | IC50 (TE-441-T): > 2 µM | IC50 (EHEB): > 2 µM | IC50 (RPMI 8402): > 2 µM | IC50 (D-336MG): 0.662 µM

Nc1ccccc1NC(=O)c1ccc(CNC(=O)OCc2cccnc2)cc1 [ENTINOSTAT]
IC50 (BL-70): 0.857 µM | IC50 (MC-CAR): > 5 µM | IC50 (KMS-12-PE): > 5 µM | IC50 (NCI-H1522): 2.22 µM | IC50 (ST486): 0.879 µM | IC50 (TE-15): > 5 µM | IC50 (OPM-2): 0.415 µM | IC50 (TALL-1): > 5 µM | IC50 (NCI-H345): 2.33 µM | IC50 (CP66-MEL): 2.48 µM | IC50 (SK-MM-2): 0.399 µM | IC50 (NCI-H2171): 1.35 µM | IC50 (TE-441-T): > 5 µM | IC50 (EHEB): 0.926 µM | IC50 (RPMI 8402): 0.387 µM | IC50 (D-336MG): > 5 µM

CC(C)C[C@H](NC(=O)[C@H](Cc1ccccc1)NC(=O)c1cnccn1)B(O)O [BORTEZOMIB]
IC50 (BL-70): 0.00212 µM | IC50 (MC-CAR): > 0.02 µM | IC50 (KMS-12-PE): > 0.02 µM | IC50 (NCI-H1522): > 0.02 µM | IC50 (ST486): > 0.02 µM | IC50 (TE-15): 0.00343 µM | IC50 (OPM-2): 0.00133 µM | IC50 (TALL-1): > 0.02 µM | IC50 (NCI-H345): 0.0072 µM | IC50 (CP66-MEL): 0.000473 µM | IC50 (SK-MM-2): 0.00109 µM | IC50 (NCI-H2171): > 0.02 µM | IC50 (TE-441-T): > 0.02 µM | IC50 (EHEB): 0.00167 µM | IC50 (RPMI 8402): 0.0035 µM | IC50 (D-336MG): 0.000657 µM
